Measurements published in US8354443B2, “Cyclopropane indolinone derivatives” (Hoffmann-La Roche Inc., priority 2009, dated 2013).

Tested on: recombinant AMPK proteins (α1β1γ1, α2β1γ1, α1(1-335), α1(1-394) or α2(1-394))
Assay: Scintillation Proximity Assay (AMPK activation)
Type: biochemical, human
Conditions: effective concentration of activator for 50% of maximal enzyme activity; 2 hr at 30° C.; AMPK form not specified
Excerpt: Recombinant human AMPK α1β1γ1, α2β1γ1 or AMPK a subunit truncations α1 (1-335), α1 (1-394) and α2(1-394) were constructed, expressed and purified as described previously (Pang, T., Zhang, Z. S., Gu, M., Qiu, B. Y., Yu, L. F., Cao, P. R., Shao, W., Su, M. B., Li, J. Y., Nan, F. J., and Li, J. (2008) or purchased from Invitrogen (San Diego, Calif., U.S.A.). Rat liver AMPK heterotrimer enzyme was obtained from Upstate (Billerica, Mass., U.S.A.).
Before the Scintillation Proximity Assay (SPA) assay, 200 nM recombinant AMPK proteins (α1β1γ1, α2β1γ1, α1(1-335), α1(1-394) or α2(1-394)) were fully phosphorylated as described previously (Pang et al., 2008). SPA reactions were performed in 96-well plates at a final volume of 50 μl containing 20 mM Tris-HCl pH 7.5, 5 mM MgCl2, 1 mM DTT, 2 μM biotin-SAMS, 2 μM ATP, 0.2 μCi/well [γ-^33P]ATP, and various amount of activator. Reactions were initiated by the addition of 50 nM recombinant AMPK proteins to the reaction solutions and incubated at 30° C. for 2 hr. After that, reactions were terminated by the addition of 40 μl stop solution containing 80 μg streptavidin-coated SPA beads per well, 50 mM EDTA, 0.1% Triton X-100 in PBS, pH 7.5 and incubated for 1 hr. Finally, a 160 μl suspension solution containing 2.4 M CsCl, 50 mM EDTA, and 0.1% Triton X-100 in PBS (pH 7.5) was added to the reaction solution to suspend SPA beads completely. SPA signals were determined with a Wallac MicroBeta plate counter (PerkinElmer) 30 min later for calculation of the amount of product formed. The amount of products formed in 2 hr was plotted against activator concentrations to determine the effective concentration of the activator (EC50) required for 50% of maximal enzyme activity.

Compound	EC50 [nM]
O=C(O)c1cccc(CN2C(=O)[C@]3(C[C@H]3c3ccc(F)cc3)c3ccccc32)c1 (racemic) [Example 26, (1S,2S) and (1R,2R)-3-((-2-(4-fluorophenyl)-2′-oxospiro[cyclopropane-1,3′-indoline]-1′-yl)methyl)benzoic acid]	1790
O=C(c1cccc(CN2C(=O)[C@]3(C[C@@H]3c3ccc(Cl)cc3)c3ccccc32)c1)N1CCCCC1 (racemic) [Example 60, (1S,2R) and (1R,2S)-2-(4-chlorophenyl)-1′-(3-(piperidine-1-carbonyl)benzyl) Spiro[cyclopropane-1,3′-indolin]-2′-one]	3500
CC(C)NC(=O)c1cccc(CN2C(=O)[C@@]3(C[C@H]3c3ccc(Cl)cc3)c3ccccc32)c1 (racemic) [Example 61, (1R,2S) and (1S,2R)-3-((2-(4-chlorophenyl)-2′-oxospiro[cyclopropane-1,3′-indoline]-1′-yl)methyl)-N-isopropylbenzamide]	8670
O=C(c1cccc(CN2C(=O)[C@]3(C[C@@H]3c3ccc(Cl)cc3)c3ccccc32)c1)N1CCNCC1 (racemic) [Example 62, (1S,2R) and (1R,2S)-2-(4-chlorophenyl)-1′-(3-(piperazine-1-carbonyl)benzyl)spiro[cyclopropane-1,3′-indolin]-2′-one]	6570
O=C(c1cccc(CN2C(=O)[C@@]3(C[C@H]3c3ccc(Cl)cc3)c3ccccc32)c1)N1CCOCC1 (racemic) [Example 63, (1R,2S) and (1S,2R)-2-(4-chlorophenyl)-1′-(3-(morpholine-4-carbonyl)benzyl)spiro[cyclopropane-1,3′-indolin]-2′-one]	1540
O=C(c1cccc(CN2C(=O)[C@@]3(C[C@H]3c3ccc(Cl)cc3)c3ccccc32)c1)N1CCN(c2ccncc2)CC1 (racemic) [Example 64, (1R,2S) and (1S,2R)-2-(4-chlorophenyl)-1′-(3-(4-(pyridin-4-yl)piperazine-1-carbonyl)benzyl)spiro[cyclopropane-1,3′-indolin]-2′-one]	1600
CC(C)N1CCN(C(=O)c2cccc(CN3C(=O)[C@]4(C[C@@H]4c4ccc(Cl)cc4)c4ccccc43)c2)CC1 (racemic) [Example 65, (1S,2R) and (1R,2S)-2-(4-chlorophenyl)-1′-(3-(4-isopropylpiperazine-1-carbonyl)benzyl)spiro[cyclopropane-1,3′-indolin]-2′-one]	1710
Cc1cc(NC(=O)c2cccc(CN3C(=O)[C@@]4(C[C@H]4c4ccc(Cl)cc4)c4ccccc43)c2)[nH]n1 (racemic) [Example 67, (1R,2S) and (1S,2R)-3-((2-(4-chlorophenyl)-2′-oxospiro[cyclopropane-1,3′-indoline]-1′-yl)methyl)-N-(3-methyl-1 H-pyrazol-5-yl)benzamide]	2290
O=C(O)c1cccc(CN2C(=O)[C@]3(C[C@@H]3c3ccc(Cl)cc3)c3ccccc32)n1 (racemic) [Example 68, (1S,2R) and (1R,2S)-6-((2-(4-chlorophenyl)-2′-oxospiro[cyclopropane-1,3′-indoline]-1′-yl)methyl)picolinic acid]	2800
O=C1N(CC2CCOCC2)c2ccccc2[C@@]12C[C@@H]2c1ccc(Cl)cc1 (racemic) [Example 70, (1S,2R) and (1R,2S)-2-(4-chlorophenyl)-1′-((tetrahydro-2 H-pyran-4-yl)methyl)spiro[cyclopropane-1,3′-indolin]-2′-one]	1540
CCN(CC)CCN1C(=O)[C@]2(C[C@@H]2c2ccc(Cl)cc2)c2ccccc21 (racemic) [Example 71, (1S,2R) and (1R,2S)-2-(4-chlorophenyl)-1′-(2-(diethylamino)ethyl)spiro[cyclopropane-1,3′-indolin]-2′-one]	3200
O=C1N(CCN2CCOCC2)c2ccccc2[C@@]12C[C@@H]2c1ccc(Cl)cc1 (racemic) [Example 72, (1S,2R) and (1R,2S)-2-(4-chlorophenyl)-1′-(2-morpholinoethyl) spiro[cyclopropane-1,3′-indolin]-2′-one]	4100
CS(=O)(=O)N1CCC(CN2C(=O)[C@]3(C[C@@H]3c3ccc(Cl)cc3)c3ccccc32)CC1 (racemic) [Example 73, (1S,2R) and (1R,2S)-2-(4-chlorophenyl)-1′-((1-(methylsulfonyl)piperidin-4-yl)methyl) Spiro[cyclopropane-1,3′-indolin]-2′-one]	1650
CC(C)N1CCN(CCN2C(=O)[C@]3(C[C@@H]3c3ccc(Cl)cc3)c3ccccc32)CC1 (racemic) [Example 74, (1S,2R) and (1R,2S)-2-(4-chlorophenyl)-1′-(2-(4-isopropylpiperazin-1-yl)ethyl)spiro [cyclopropane-1,3′-indolin]-2′-one]	8800
CN(C)CCN1CCN(CCN2C(=O)[C@]3(C[C@@H]3c3ccc(Cl)cc3)c3ccccc32)CC1 (racemic) [Example 75, (1S,2R) and (1R,2S)-2-(4-chlorophenyl)-1′-(2-(4-(2-(dimethylamino)ethyl)piperazin-1-yl)ethyl) Spiro[cyclopropane-1,3′-indolin]-2′-one]	5910
O=C1N(Cc2ccncc2)c2ccccc2[C@]12C[C@H]2c1ccc(Cl)cc1 (racemic) [Example 78, (1R,2S) and (1S,2R)-2-(4-chlorophenyl)-1′-(pyridin-4-ylmethyl)spiro[cyclopropane-1,3′-indolin]-2′-one]	4200
O=C1N(Cc2cccnc2)c2ccccc2[C@@]12C[C@@H]2c1ccc(Cl)cc1 (racemic) [Example 79, (1S,2R) and (2R,1S)-2-(4-chlorophenyl)-1′-(pyridin-3-ylmethyl)spiro[cyclopropane-1,3′-indolin]-2′-one]	2600
O=C(O)Cn1cnc(N2C(=O)[C@]3(C[C@@H]3c3ccc(Cl)cc3)c3ccccc32)c1 (racemic) [Example 80, (1S,2R) and (1R,2S)-2-(4-(2-(4-chlorophenyl)-2′-oxospiro[cyclopropane-1,3′-indoline]-1′-yl)-1 H-imidazol-1-yl)acetic acid]	1250
O=C(O)c1cn(CCN2C(=O)[C@]3(C[C@@H]3c3ccc(Cl)cc3)c3ccccc32)cn1 (racemic) [Example 81, (1S,2R) and (1R,2S)-1-(2-(2-(4-chlorophenyl)-2′-oxospiro[cyclopropane-1,3′-indoline]-1′-yl)ethyl)-1H-imidazole-4-carboxylic acid]	2220
O=C(O)c1cn(CCN2C(=O)[C@]3(C[C@H]3c3ccc(Cl)cc3)c3ccccc32)cn1 (racemic) [Example 82, (1S,2S) and (1R,2R)-1-(2-(2-(4-chlorophenyl)-2′-oxospiro[cyclopropane-1,3′-indoline]-1′-yl)ethyl)-1H-imidazole-4-carboxylic acid]	4030
O=C(O)c1cccc(N2C(=O)[C@]3(C[C@@H]3c3ccc(Cl)cc3)c3ccccc32)c1 (racemic) [Example 83, (1S,2R) and (1R,2S)-3-(2-(4-chlorophenyl)-2′-oxospiro[cyclopropane-1,3′-indoline]-1′-yl)benzoic acid]	2590
O=C(O)c1cccc(N2C(=O)[C@]3(C[C@H]3c3ccc(Cl)cc3)c3ccccc32)c1 (racemic) [Example 84, (1S,2S) and (1R,2R)-3-(−2-(4-chlorophenyl)-2′-oxospiro[cyclopropane-1,3′-indoline]-1′-yl)benzoic acid]	2980
O=C(c1cccc(N2C(=O)[C@]3(C[C@H]3c3ccc(Cl)cc3)c3ccccc32)c1)N1CCOCC1 (racemic) [Example 85, (1S,2S) and (1R,2R)-2-(4-chlorophenyl)-1′-(3-(morpholine-4-carbonyl)phenyl)spiro [cyclopropane-1,3′-indolin]-2′-one]	950
CN1CCN(C(=O)c2cccc(N3C(=O)[C@]4(C[C@H]4c4ccc(Cl)cc4)c4ccccc43)c2)CC1 (racemic) [Example 86, (1S,2S) and (1R,2R)-2-(4-chlorophenyl)-1′-(3-(4-methylpiperazine-1-carbonyl)phenyl) Spiro[cyclopropane-1,3′-indolin]-2′-one]	1730
CS(=O)(=O)N1CCN(C(=O)c2cccc(N3C(=O)[C@]4(C[C@H]4c4ccc(Cl)cc4)c4ccccc43)c2)CC1 (racemic) [Example 87, (1S,2S) and (1R,2R)-2-(4-chlorophenyl)-1′-(3-(4-(methylsulfonyl)piperazine-1-carbonyl)phenyl)spiro[cyclopropane-1,3′-indolin]-2′-one]	6730
O=C(c1cccc(N2C(=O)[C@@]3(C[C@H]3c3ccc(Cl)cc3)c3ccccc32)c1)N1CCOCC1 (racemic) [Example 88, (1R,2S) and (1S,2R)-2-(4-chlorophenyl)-1′-(3-(morpholine-4-carbonyl)phenyl)spiro [cyclopropane-1,3′-indolin]-2′-one]	2560
